The values that follow come from paper PMC3445516 (PLoS ONE, 2012).

Experiment [1] addresses PKCδ (Homo sapiens, UniProt Q05655). As to the kind of experiment: In vitro radiometric PKC kinase assay. The experiment is classed as biochemical. Further details: purchased SignalChem (Richmond, BC, Canada). As to the method:
(§1) In this study, we counter-screened the twenty-eight PKD1 inhibitory agents for inhibition of PKCα, PKCδ and CAMKIIα in order to get an initial profile for the potential PKD selectivity, since these are the functionally most closely related kinases. The compounds were examined at 0.1, 1 and 10 µM concentration. […] Next, the inhibitory activity for CAMKIIα was examined.
(§2) The PKC kinase assay was carried out by co-incubating 1 µCi [γ-^32P]ATP, 20 µM ATP, 50 ng of purified PKCα or PKCδ and 5 µg of myelin basic protein 4–14, 0.25 mg/mL bovine serum albumin, 0.1 mg/mL phosphatidylcholine/phosphatidylserine (80/20%) (1 µM), 1 µM phorbol dibutyrate in 50 µL of kinase buffer containing 50 mM Tris-HCl, pH 7.5, 4 mM MgCl2 and 10 mM β-mercaptoethanol. For the CAMK assay, 50 ng of CAMK and 2 µg Syntide-2 substrate in 50 µL kinase buffer were incubated with 0.1 mM MgCl2, 1 µCi of [γ-^32P] ATP, 70 µM ATP. 0.5 mM CaCl2 and 30 ng/µL calmodulin were preincubated for 15 min on ice and then added in the kinase reaction. The reactions were incubated at 30°C for 10 minutes and 25 µL of the reaction was spotted on Whatman P81 filter paper. The filter paper was washed 3 times in 0.5% phosphoric acid, air dried and counted using Beckman LS6500 multipurpose scintillation counter.

Experiment [2] concerns the target T1, PKCα (Homo sapiens, UniProt P17252).
T1 construct: purchased SignalChem (Richmond, BC, Canada)
As to the kind of experiment: In vitro radiometric PKC kinase assay. The experiment is classed as biochemical. The settings on record: 0.1, 1 and 10 µM; positive control. The method, then:
as §1, §2

The target of experiment [3] is p38δ (Homo sapiens, UniProt O15264). The experiment is described as follows: In vitro radiometric p38 kinase assay. The format is biochemical. As to the method: To confirm that p38 was indeed a target of the 4-azaindole, the inhibition of p38 by the twenty-eight PKD1 inhibitors was evaluated using an in vitro radiometric p38 kinase assay. […] Taken together, our data has identified a novel PKD1 inhibitor scaffold that is active for p38α, but not for PKC, CAMK and p38δ.
Sequence of p38δ (O15264 whole entry): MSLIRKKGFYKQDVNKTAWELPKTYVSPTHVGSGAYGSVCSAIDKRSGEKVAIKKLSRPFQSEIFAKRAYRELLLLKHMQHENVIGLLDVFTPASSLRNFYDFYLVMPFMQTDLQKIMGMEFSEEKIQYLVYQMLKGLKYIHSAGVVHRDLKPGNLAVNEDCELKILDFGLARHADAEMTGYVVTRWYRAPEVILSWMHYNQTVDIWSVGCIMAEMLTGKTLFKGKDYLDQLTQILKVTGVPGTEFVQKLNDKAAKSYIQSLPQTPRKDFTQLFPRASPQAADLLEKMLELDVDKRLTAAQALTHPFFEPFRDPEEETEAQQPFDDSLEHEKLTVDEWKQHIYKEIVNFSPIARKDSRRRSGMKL
(§3) Phosphorylation of 3.5 µg of p38 substrate was detected in a reaction having 1 µCi [γ-^32P] ATP (Perkin Elmer Life Sciences), 50 µM ATP, 50 ng active recombinant p38 in 50 µL kinase buffer containing 25 mM Tris-HCl, pH 7.5, 10 mM MgCl2, 5 mM β-glycerophosphate, 0.1 mM Na3VO4 and 2 mM DTT. The reaction was incubated at 30°C for 10 minutes and 25 µL of the reaction was spotted on Whatman P81 filter paper. The filter paper was washed 3 times in 0.5% phosphoric acid, air dried and counted using Beckman LS6500 multipurpose scintillation counter. Percent p38 inhibition was graphed using GraphPad Prism software 5.0.

The target in experiment [4] is T2, recombinant GST-tagged human protein kinase D1 (PKD1) (Homo sapiens, UniProt Q15139).
T2 construct: purchased Enzo Life sciences (Farmingdale, NY)
T2 sequence (Q15139 1-912): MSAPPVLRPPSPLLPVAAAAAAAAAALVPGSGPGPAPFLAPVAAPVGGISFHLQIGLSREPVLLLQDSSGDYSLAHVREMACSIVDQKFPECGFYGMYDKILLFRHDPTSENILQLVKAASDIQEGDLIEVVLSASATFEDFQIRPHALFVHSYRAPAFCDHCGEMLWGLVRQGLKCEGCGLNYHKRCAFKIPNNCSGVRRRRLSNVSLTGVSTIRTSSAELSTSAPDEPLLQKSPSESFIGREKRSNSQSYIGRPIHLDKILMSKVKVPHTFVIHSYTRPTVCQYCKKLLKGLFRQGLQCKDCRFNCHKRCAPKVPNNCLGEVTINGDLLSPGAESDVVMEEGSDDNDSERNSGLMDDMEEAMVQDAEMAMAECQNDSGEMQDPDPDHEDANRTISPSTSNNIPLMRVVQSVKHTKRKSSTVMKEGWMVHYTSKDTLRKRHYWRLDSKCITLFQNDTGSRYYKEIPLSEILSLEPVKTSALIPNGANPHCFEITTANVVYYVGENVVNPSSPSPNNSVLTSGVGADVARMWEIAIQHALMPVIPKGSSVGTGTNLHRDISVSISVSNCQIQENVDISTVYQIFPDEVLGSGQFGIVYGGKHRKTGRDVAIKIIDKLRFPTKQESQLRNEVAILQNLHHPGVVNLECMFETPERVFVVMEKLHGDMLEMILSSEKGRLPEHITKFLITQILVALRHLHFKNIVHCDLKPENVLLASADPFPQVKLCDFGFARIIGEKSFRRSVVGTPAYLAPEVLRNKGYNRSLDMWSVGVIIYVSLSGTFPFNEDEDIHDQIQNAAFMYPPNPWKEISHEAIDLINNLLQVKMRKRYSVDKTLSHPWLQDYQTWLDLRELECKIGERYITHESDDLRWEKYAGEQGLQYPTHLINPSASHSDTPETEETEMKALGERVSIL
The experiment is described as follows: In vitro radiometric PKD1 kinase assay. The note with it: for inhibition at 1 µM: read-out: Inhibition of PKD1. The format is biochemical. As to the method: All compounds were given distinct UPCMLD (University of Pittsburgh Center for Chemical Methodologies and Library Development) IDs and were then assigned numerical IDs for convenient data display. Evaluation of each compound was carried out in triplicate at a single concentration (1 µM). Our previously described PKD1 inhibitor, kb-NB142-70, and DMSO (solvent alone) were used as positive and negative controls, respectively. Percent residual kinase activity was calculated based on that of the negative control (DMSO).
Kinase active recombinant GST-tagged human protein kinase D1 (PKD1) was obtained from Enzo Life sciences (Farmingdale, NY). DMSO was purchased from Sigma. Recombinant PKCα, PKCδ and CAMKIIα were obtained from SignalChem (Richmond, BC, Canada). ATP was purchased from Fisher Scientific. HDAC5 substrate peptide was synthesized by Biobasic Canada Inc. (Markham, ON). Myelin basic protein 4–14 was purchased from AnaSpec Inc. (Fremont, CA). The targeted kinase inhibitor library was obtained from Hoffmann-La Roche, Inc.
1.2 µg of HDAC-5 was used as substrate in the reaction. Phosphorylation of HDAC5 was detected in a kinase reaction having 1 µCi [γ-^32P] […] The reaction was incubated at 30° for 10 minutes and 25 µL of the reaction was spotted on Whatman P81 filter paper. The filter paper was washed 3 times in 0.5% phosphoric acid, air dried and counted using Beckman LS6500 multipurpose scintillation counter. Percent PKD1 inhibition was graphed using GraphPad Prism software 5.0.

Experiment [5] concerns the target T3, PKD1 (Homo sapiens, UniProt Q15139).
T3 construct: purchased Enzo Life sciences (Farmingdale, NY)
As to the kind of experiment: Kinetic analysis, Lineweaver-Burk plots (ATP competition). The format is biochemical. The method, then: (§4) PMA induces PKC-dependent phosphorylation of Ser744/748 (S^744/748) in the activation loop followed by autophosphorylation of PKD1 on Ser916 (S^916) in the C-terminus, [31]. The catalytic activity of PKD1 correlates well with the level of phosphorylation at S^916 [31].
(§5) Figure 5 In vitro IC50, cellular activity, and mode of action of representative compounds. […] IC50 values were calculated based on the dose-response curve. Data are represented as mean ± SEM of 3 independent experiments. […] Cell lysates were subjected to immunoblotting for pS^916-PKD1 and pS^744/748-PKD1. Tubulin was blotted as loading control. The experiments were repeated three times and representative blots are shown. C.

Experiment [6] deals with T4, endogenous PKD1 in LNCaP prostate cancer cells (Homo sapiens, UniProt Q15139).
T4 construct: endogenous in cells; host or cells: LNCaP prostate cancer cells
T4 sequence (Q15139 1-912): T2 sequence (Q15139 1-912)
As to the kind of experiment: PMA-induced activation of PKD1 in LNCaP cells (immunoblot pS916 / pS744/748). The format is cell-based. The note with it: PMA 10 nM. As to the method:
as §4, §5

Experiment [7] addresses p38α (Homo sapiens, UniProt Q16539). The note with it: 10 and 100 nM. The method, then:
as §3

For experiment [8], the system named is LPS-stimulated TNFα synthesis. Further details: method as in PMID 14561090. The settings on record: acute rat model of LPS-stimulated TNFα synthesis; cited from earlier work.
[9] abbreviates: 1 µM, triplicate determinations.

Where two headings read alike, the source gives them in different places.

Sequence of PKCδ (Q05655 whole entry): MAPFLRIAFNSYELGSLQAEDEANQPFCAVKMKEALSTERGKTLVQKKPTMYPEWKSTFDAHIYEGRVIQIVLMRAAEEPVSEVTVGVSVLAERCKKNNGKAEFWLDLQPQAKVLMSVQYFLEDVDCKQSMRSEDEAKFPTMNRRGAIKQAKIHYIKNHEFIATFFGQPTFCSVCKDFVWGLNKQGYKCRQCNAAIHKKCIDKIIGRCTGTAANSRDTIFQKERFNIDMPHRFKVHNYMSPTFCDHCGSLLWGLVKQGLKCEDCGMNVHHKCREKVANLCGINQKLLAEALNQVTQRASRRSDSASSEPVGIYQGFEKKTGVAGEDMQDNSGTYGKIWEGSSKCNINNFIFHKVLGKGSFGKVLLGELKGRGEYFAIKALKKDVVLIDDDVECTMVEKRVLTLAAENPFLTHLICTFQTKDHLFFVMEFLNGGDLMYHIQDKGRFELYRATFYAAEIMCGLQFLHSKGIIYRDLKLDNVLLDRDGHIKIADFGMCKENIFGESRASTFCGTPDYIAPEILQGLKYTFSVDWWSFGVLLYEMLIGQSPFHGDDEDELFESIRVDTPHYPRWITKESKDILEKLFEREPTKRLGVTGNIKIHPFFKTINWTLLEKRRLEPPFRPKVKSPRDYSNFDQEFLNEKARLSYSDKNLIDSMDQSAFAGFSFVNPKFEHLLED
Sequence of p38α (Q16539 whole entry): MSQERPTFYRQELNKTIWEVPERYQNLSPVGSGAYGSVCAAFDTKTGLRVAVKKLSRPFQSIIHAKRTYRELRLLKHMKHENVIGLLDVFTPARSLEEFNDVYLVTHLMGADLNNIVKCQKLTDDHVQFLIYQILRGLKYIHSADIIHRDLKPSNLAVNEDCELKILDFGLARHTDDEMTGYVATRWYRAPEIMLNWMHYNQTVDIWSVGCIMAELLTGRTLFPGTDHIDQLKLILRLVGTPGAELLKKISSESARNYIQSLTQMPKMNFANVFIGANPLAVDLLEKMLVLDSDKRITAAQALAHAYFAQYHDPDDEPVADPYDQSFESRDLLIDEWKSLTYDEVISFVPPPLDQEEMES

For `CN(C)CCCn1cc(C2=C(c3c[nH]c4ccccc34)C(=O)NC2=O)c2ccccc21` [GF109203X, reference compound], in experiment [1] (0.1, 1 and 10 µM, positive control), the “inhibition of PKCδ” value is reported as “strongly inhibited”. The “inhibition of PKCα” value in experiment [2] is given as “strongly inhibited”.

Take `COc1cc[nH]c1/C=C1\C(=O)Nc2ccc(F)c(C#CC3(O)CCNCC3)c21` [Compound 15]: the inhibition at 1 µM in experiment [3] is ≥ 50%; in experiment [4] (setting [9]) it was 97%.

On to `O=C1N=C(N[C@@H](CO)Cc2ccccc2)S/C1=C\c1ccc2ncccc2c1` [Compound 198], for which the inhibition at 10 µM in experiment [1] (10 µM, read-out: inhibition of PKCδ) was ~70%. The inhibition at 1 µM in experiment [3] is ≥ 50%; in experiment [4] (setting [9]), 62%.

As to `CC(CO)Nc1cc(-c2[nH]c3cccnc3c2-c2ccc(F)cc2)ccn1` (centres unmarked) [Compound 139], the “mode of inhibition with respect to ATP” value in experiment [5] is on record as “competitive with respect to ATP”. Also, the “effect on PKC-induced transphosphorylation at S744/748” value in experiment [6] is on record as “did not affect”. Besides, the IC50 in experiment [6] (densitometry of pS916-PKD1 levels, read-out: cellular IC50 for inhibition of PKD1) worked out at 1.5 µM; in experiment [4] (dose-response, mean ± SEM of 3 independent experiments) it was 0.0168 µM. For the same compound, in experiment [4], the inhibition at 1 µM turned out to be 94%. In addition, in experiment [7], the “inhibition of p38α” value is “most potent”. Moreover, the in vivo efficacy result in experiment [8] was “in vivo efficacy has been demonstrated”.
